What was measured:
[1] = test system: Human immunodeficiency virus; experiment: Antiviral activity against HIV; type: functional, organism-based; settings: Human immunodeficiency virus 1
[2] = Cytotoxicity against human CEM cells; type: toxicity, cell-based; settings: CEM cells (CCRF-CEM)
[3] = test system: Human immunodeficiency virus 1; experiment: Antiviral activity against HIV-1 LAV infected in human CEM cells; type: functional, organism-based; settings: Human immunodeficiency virus 1, LAV, CCRF-CEM
[4] = Inhibition of HIV integrase; set-up: species or system Human immunodeficiency virus
[5] = test system: Human immunodeficiency virus; experiment: Antiviral activity agaisnt HIV BAL infected in human PM1 cells assessed as inhibition of viral replication; type: functional, organism-based; settings: Human immunodeficiency virus 1, BAL
[6] = Inhibition of wildtype HIV Reverse transcriptase; set-up: species or system Human immunodeficiency virus
[7] = molecular target: Human immunodeficiency virus type 1 protease (Human immunodeficiency virus 1, UniProt Q72874); experiment: Inhibition of HIV-1 protease
[8] = test system: Human immunodeficiency virus 1; experiment: Antiviral activity against HIV-1 IIIB infected in human H9 cells; type: functional, organism-based; settings: Human immunodeficiency virus 1, IIIB
[9] = Cytotoxicity against human CEM cells measured after 6 days; settings: CEM cells (CCRF-CEM)
[10] = test system: Human immunodeficiency virus 1; experiment: Antiviral activity against HIV-1 infected in PBMC (unknown origin) assessed as inhibition of viral replication by ELISA; type: functional, organism-based; settings: Human immunodeficiency virus 1, PBMC
[11] = molecular target: hERG (Homo sapiens, UniProt Q12809); experiment: Inhibition of tritium labelled dofetilide binding to hERG expressed in HEK293 cells at 300 nM relative to control; type: toxicity, cell-based; settings: HEK293 cells that express hERG, probe tritium labelled dofetilide
Chain of hERG (Q12809 whole entry): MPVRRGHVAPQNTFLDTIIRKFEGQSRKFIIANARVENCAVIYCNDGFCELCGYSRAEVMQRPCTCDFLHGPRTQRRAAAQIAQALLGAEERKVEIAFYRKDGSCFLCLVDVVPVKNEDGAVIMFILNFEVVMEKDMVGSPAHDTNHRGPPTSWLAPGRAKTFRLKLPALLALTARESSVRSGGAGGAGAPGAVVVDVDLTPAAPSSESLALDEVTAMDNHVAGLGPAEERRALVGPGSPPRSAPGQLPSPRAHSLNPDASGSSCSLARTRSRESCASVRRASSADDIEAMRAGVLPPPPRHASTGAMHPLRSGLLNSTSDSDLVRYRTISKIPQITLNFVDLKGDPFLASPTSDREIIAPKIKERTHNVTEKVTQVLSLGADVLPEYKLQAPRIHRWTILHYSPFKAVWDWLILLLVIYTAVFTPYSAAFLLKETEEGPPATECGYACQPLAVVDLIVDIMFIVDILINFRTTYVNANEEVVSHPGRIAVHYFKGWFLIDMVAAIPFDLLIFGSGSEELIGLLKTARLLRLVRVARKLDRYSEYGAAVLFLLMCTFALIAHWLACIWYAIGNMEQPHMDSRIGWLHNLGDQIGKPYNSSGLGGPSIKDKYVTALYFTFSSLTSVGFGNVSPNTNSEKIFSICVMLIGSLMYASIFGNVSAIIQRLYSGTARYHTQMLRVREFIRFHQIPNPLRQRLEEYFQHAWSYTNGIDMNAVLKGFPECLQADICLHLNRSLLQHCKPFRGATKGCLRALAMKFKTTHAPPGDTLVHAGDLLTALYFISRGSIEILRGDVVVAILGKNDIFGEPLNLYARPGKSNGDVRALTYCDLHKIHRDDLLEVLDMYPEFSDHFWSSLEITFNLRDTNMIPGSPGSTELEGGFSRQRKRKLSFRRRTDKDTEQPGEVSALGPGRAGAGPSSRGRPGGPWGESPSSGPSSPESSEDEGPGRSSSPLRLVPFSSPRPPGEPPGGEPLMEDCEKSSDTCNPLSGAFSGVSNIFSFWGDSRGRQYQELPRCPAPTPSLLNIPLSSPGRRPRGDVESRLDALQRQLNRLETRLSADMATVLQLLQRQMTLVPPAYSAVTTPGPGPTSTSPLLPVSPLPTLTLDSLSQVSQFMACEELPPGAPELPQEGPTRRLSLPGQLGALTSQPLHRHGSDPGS

[12] = test system: Human immunodeficiency virus 1; experiment: Antiviral activity against NNRTI-resistant HIV-1 harboring Y181C mutant assessed as inhibition of viral growth; type: functional
[13] = test system: Human immunodeficiency virus 1; experiment: Antiviral activity against NNRTI-resistant HIV-1 harboring K103N mutant assessed as inhibition of viral growth; type: functional
[14] = test system: Human immunodeficiency virus 1; experiment: Antiviral activity against NNRTI-resistant HIV-1 harboring K103N/Y181C double mutant assessed as inhibition of viral growth; type: functional
[15] = test system: Human immunodeficiency virus 1; experiment: Antiviral activity against HIV-1 RF infected in human MT4 cells assessed as reduction in viral RNA production measured after 3 days by plaque assay; type: functional; settings: Human immunodeficiency virus 1, RF, MT4, 72 h; time 3 day
[16] = Half-life in human administered as single dose; type: ADME
[17] = Metabolic stability in rhesus monkey hepatocytes assessed as half-life; type: ADME, cell-based, Macaca mulatta, Hepatocyte
[18] = test system: Human immunodeficiency virus 1; experiment: Antiviral activity against HIV-1 infected in human PBMC; type: functional, organism-based; settings: Human immunodeficiency virus 1, PBMC
[19] = molecular target: Human immunodeficiency virus type 1 Gag protein (Human immunodeficiency virus 1, UniProt Q77YG1); experiment: Binding affinity to HIV1 Gag assessed as dissociation constant
[20] = molecular target: C-C chemokine receptor type 5 (Homo sapiens, UniProt P51681); experiment: Displacement of [125I]MIP-1alpha from CCR5 receptor (unknown origin) expressed in HEK293 cells; type: cell-based
Chain of C-C chemokine receptor type 5 (P51681 whole entry): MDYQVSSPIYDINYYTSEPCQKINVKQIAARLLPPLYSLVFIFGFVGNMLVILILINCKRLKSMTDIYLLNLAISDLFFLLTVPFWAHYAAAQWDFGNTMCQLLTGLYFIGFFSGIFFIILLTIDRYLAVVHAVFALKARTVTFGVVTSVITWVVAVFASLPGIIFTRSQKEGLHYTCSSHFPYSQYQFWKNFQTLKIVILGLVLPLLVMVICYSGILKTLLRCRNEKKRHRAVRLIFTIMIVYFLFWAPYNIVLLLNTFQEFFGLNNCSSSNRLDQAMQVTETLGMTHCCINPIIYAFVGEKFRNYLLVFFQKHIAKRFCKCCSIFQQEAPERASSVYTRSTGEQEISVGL

[21] = molecular target: T1, DNA polymerase subunit gamma-1 (Homo sapiens) (UniProt P54098); experiment: Ratio of K for biding affinity to human DNA polymerase gamma assessed as polymerization rate to Kd for binding affinity to human DNA polymerase gamma
T1 sequence (whole entry): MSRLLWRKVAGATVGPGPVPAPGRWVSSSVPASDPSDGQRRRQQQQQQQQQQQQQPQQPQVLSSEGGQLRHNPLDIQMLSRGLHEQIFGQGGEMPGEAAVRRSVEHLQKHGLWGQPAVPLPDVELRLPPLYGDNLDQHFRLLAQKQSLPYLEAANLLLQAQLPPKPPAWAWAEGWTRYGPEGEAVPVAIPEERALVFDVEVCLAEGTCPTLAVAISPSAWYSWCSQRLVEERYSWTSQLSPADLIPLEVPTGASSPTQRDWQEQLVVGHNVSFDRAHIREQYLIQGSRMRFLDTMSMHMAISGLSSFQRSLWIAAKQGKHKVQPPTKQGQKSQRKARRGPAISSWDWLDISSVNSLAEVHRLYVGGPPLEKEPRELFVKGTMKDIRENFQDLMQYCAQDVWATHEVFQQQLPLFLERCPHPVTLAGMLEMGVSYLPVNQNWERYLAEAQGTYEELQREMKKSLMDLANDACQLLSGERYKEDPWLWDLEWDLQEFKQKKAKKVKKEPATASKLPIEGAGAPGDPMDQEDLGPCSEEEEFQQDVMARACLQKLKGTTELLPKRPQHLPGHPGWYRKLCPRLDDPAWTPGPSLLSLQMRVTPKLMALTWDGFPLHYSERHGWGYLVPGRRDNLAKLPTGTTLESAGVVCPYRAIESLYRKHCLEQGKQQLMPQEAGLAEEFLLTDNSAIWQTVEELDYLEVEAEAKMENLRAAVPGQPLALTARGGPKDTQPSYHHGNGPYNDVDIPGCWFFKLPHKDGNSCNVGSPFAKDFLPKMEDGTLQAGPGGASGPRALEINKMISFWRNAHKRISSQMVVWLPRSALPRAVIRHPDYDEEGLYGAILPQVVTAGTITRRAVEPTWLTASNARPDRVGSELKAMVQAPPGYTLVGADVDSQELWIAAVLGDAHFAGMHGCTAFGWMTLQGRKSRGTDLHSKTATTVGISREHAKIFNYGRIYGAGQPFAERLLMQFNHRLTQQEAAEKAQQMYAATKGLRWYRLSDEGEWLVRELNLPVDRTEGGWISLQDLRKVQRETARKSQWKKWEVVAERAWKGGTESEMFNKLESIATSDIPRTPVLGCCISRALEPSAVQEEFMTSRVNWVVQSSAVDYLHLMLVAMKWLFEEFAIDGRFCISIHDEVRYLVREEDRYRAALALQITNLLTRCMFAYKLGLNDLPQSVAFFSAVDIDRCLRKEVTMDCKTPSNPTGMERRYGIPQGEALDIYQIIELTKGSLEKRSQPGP

[22] = molecular target: T2, DNA polymerase subunit gamma-1 (Homo sapiens, UniProt P54098); experiment: Binding affinity to human DNA polymerase gamma assessed as dissociation constant
T2 sequence (P54098 whole entry): T1 sequence (whole entry)

[23] = molecular target: T1, DNA polymerase subunit gamma-1 (Homo sapiens); experiment: Binding affinity to human DNA polymerase gamma assessed as polymerization rate

SMILES: CCC(c1ccccc1)c1c(O)c2ccccc2oc1=O (configuration not stated) [PHENPROCOUMON]
- IC50 [1]: 100000 nM

SMILES: Nc1ccn([C@H]2CS[C@@H](CO)O2)c(=O)n1
- CC50 [2]: 2700 nM
- IC50 [3]: 100 nM

SMILES: O=C(/C=C(\O)c1nc[nH]n1)c1ccc(Cc2ccc(F)cc2)o1 [S-1360]
- IC50 [4]: 20 nM

SMILES: Nc1ccn([C@H]2CSC(CO)O2)c(=O)n1 (mixture of isomers)
- CC50 [2]: 52600 nM
- IC50 [3]: 70 nM

SMILES: Cc1nnc(C(C)C)n1C1CC2CCC(C1)N2CC[C@H](NC(=O)CCC(F)(F)F)c1ccccc1 (some centres not stated)
- IC90 [5]: 14 nM

SMILES: Cc1cc(C)c(-n2nnnc2SCC(=O)Nc2ccc(S(N)(=O)=O)cc2Cl)c(C)c1
- IC50 [6]: 4.1 nM

SMILES: CCC[C@]1(CCc2ccccc2)CC(O)=C([C@H](CC)c2cccc(NS(=O)(=O)c3ccc(C#N)cn3)c2)C(=O)O1
- Ki [7]: 0.04 nM
- IC50 [8]: 110 nM
- IC90 [8]: 890 nM

SMILES: Nc1nc(=O)n([C@H]2CS[C@@H](CO)O2)cc1F
- IC50 [3]: 1400 nM
- CC50 at 144 h [9]: > 100000 nM

SMILES: O=c1[nH]cnc2c1ncn2[C@H]1CC[C@@H](CO)O1 [DIDANOSINE]
- IC50 [10]: 760 nM

SMILES: Cc1cn([C@H]2C[C@H](N=[N+]=[N-])[C@@H](CO)O2)c(=O)[nH]c1=O [ZIDOVUDINE]
- IC50 [10]: 55 nM

SMILES: Cc1nnc(C(C)C)n1C1CC2CCC(C1)N2CC[C@H](NC(=O)C1CCOCC1)c1ccccc1 (some centres not stated)
- IC90 [5]: 125 nM
- inhibition at 0.3 µM [11]: 0%

SMILES: NS(=O)(=O)c1ccc(NC(=O)COc2cccc(Oc3ccccc3)c2)c(Cl)c1
- IC50 [6]: 52 nM

SMILES: Cc1nnc(C(C)C)n1C1CC2CCC(C1)N2CC[C@H](NC(=O)C1CCC1)c1ccccc1 (some centres not stated)
- IC90 [5]: 8 nM

SMILES: Cn1c(Cn2ccc(C(F)(F)F)c(Oc3cc(Cl)cc(C#N)c3)c2=O)n[nH]c1=O [DORAVIRINE]
- IC95 [12]: 27 nM
- IC95 [13]: 43 nM
- IC95 [14]: 55 nM

SMILES: O=C1Nc2ccc(Cl)cc2[C@@](C#CC2CC2)(C(F)(F)F)N1
- IC90 [15]: 2 nM

SMILES: Nc1nc(=O)n(C2CSC(CO)O2)cc1F (racemic) [EMTRICITABINE, (+/-)-]
- IC50 [3]: 80 nM
- CC50 at 144 h [9]: > 100000 nM

SMILES: O=C1Nc2ccc(Cl)cc2[C@@](C#CC2CC2)(C(F)(F)F)O1 [EFAVIRENZ]
- IC90 [15]: 1.7 nM
- half-life [16]: < 52 h

SMILES: CC(C)(C#Cc1ccc(-c2ccc(Cl)c3c(NS(=O)(=O)C4CC4)nn(CC(F)F)c23)c([C@H](Cc2cc(F)cc(F)c2)NC(=O)Cn2nc(C(F)(F)F)c3c2C(F)(F)[C@@H]2C[C@H]32)n1)S(C)(=O)=O
- half-life [17]: 130 h
- IC50 [18]: 0.13 nM
- Kd [19]: 2.4 nM

SMILES: Cc1nc2ccccc2n1C1CCN(CC[C@H](NC(=O)c2ccccc2)c2ccccc2)CC1
- IC50 [20]: 13 nM

SMILES: Nc1ccn([C@H]2C[C@H](O)[C@@H](COP(=O)(O)OP(=O)(O)OP(=O)(O)O)O2)c(=O)n1 [DEOXYCYTIDINE TRIPHOSPHATE]
- Ratio [21]: 40 µM⁻¹ s⁻¹
- Kd [22]: 1100 nM
- K [23]: 44 s⁻¹

SMILES: CCC[C@@]1(CCc2ccccc2)CC(O)=C([C@@H](CC)c2cccc(NS(=O)(=O)c3ccc(C#N)cn3)c2)C(=O)O1
- Ki [7]: 0.1 nM
- IC50 [8]: 490 nM
- IC90 [8]: 1000 nM
